Reference: patent US10806142B2, “2-amino-5-ketoxime-pyrimidine derivatives and their use for controlling undesired plant growth” (Bayer CropScience Aktiengesellschaft, priority 2015, dated 2020)

Key:
[1] = logp (HCOOH), physicochemical characterization; conditions: HCOOH (formic acid)
[2] = system: Alopecurus myosuroides; assay: Pre-emergence herbicidal effect; type: in vivo
Source text: (§1) 1. Pre-Emergence Herbicidal Effect and Crop Plant Compatibility Seeds of monocotyledonous and dicotyledonous weed plants and crop plants are laid out in wood-fiber pots in sandy loam and covered with soil. The compounds of the invention, formulated in the form of wettable powders (WP) or as emulsion concentrates (EC), are then applied to the surface of the covering soil as aqueous suspension or emulsion at a water application rate equating to 600 to 800 L/ha with addition of 0.2% wetting agent. After the treatment, the pots are placed in a greenhouse and kept under good growth conditions for the trial plants. The damage to the trial plants is scored visually after a trial duration of 3 weeks by comparison with untreated controls (herbicidal activity in percent (%): 100% efficacy=the plants have died, 0% efficacy=like control plants). [table]

[3] = system: Avena fatua; assay: Pre-emergence herbicidal effect; type: in vivo; conditions: dosage 320 g a.i./ha
Source text: as §1

[4] = system: Stellaria media; assay: Pre-emergence herbicidal effect; type: in vivo
Source text: as §1

[5] = system: Amaranthus retroflexus; assay: Pre-emergence herbicidal effect; type: in vivo
Source text: as §1

[6] = system: Veronica persica; assay: Pre-emergence herbicidal effect; type: in vivo
Source text: as §1

[7] = system: Matricaria inodora; assay: Pre-emergence herbicidal effect; type: in vivo
Source text: as §1

[8] = system: Polygpnum convolvulus; assay: Pre-emergence herbicidal effect; type: in vivo
Source text: as §1

[9] = system: Viola tricolor; assay: Pre-emergence herbicidal effect; type: in vivo
Source text: as §1

[10] = system: Setaria viridis; assay: Pre-emergence herbicidal effect; type: in vivo
Source text: as §1

[11] = system: Abutilon theophrasti; assay: Pre-emergence herbicidal effect; type: in vivo; conditions: dosage 320 g a.i./ha
Source text: as §1

[12] = system: Echinochloa crus-galli; assay: Pre-emergence herbicidal effect; type: in vivo
Source text: as §1

[13] = system: Ipomoea purpurea; assay: Post-emergence herbicidal effect; type: in vivo; conditions: visual score after about 3 weeks
Procedure: (§2) [table] 2. Post-Emergence Herbicidal Effect and Crop Plant Compatibility Seeds of monocotyledonous and dicotyledonous weed and crop plants are laid out in sandy loam in wood-fiber pots, covered with soil and cultivated in a greenhouse under good growth conditions. 2 to 3 weeks after sowing, the test plants are treated at the one-leaf stage. The compounds of the invention, formulated in the form of wettable powders (WP) or as emulsion concentrates (EC), are then sprayed onto the green parts of the plants as aqueous suspension or emulsion at a water application rate equating to 600 to 800 L/ha with addition of 0.2% wetting agent. After the trial plants have been left to stand in a greenhouse under optimal growth conditions for about 3 weeks, the efficacy of the formulations is scored visually in comparison to untreated controls (herbicidal action in percent (%): 100% efficacy=the plants have died, 0% efficacy=like control plants).

[14] = system: Amaranthus retroflexus; assay: Post-emergence herbicidal effect; type: in vivo; conditions: visual score after about 3 weeks
Procedure: as §2

[15] = system: Viola tricolor; assay: Post-emergence herbicidal effect; type: in vivo; conditions: visual score after about 3 weeks
Procedure: as §2

[16] = system: Setaria viridis; assay: Post-emergence herbicidal effect; type: in vivo; conditions: visual score after about 3 weeks
Procedure: as §2

[17] = system: Stellaria media; assay: Post-emergence herbicidal effect; type: in vivo; conditions: visual score after about 3 weeks
Procedure: as §2

[18] = system: Matricaria inodora; assay: Post-emergence herbicidal effect; type: in vivo; conditions: visual score after about 3 weeks
Procedure: as §2

[19] = system: Polygpnum convolvulus; assay: Post-emergence herbicidal effect; type: in vivo; conditions: visual score after about 3 weeks
Procedure: as §2

[20] = system: Abutilon theophrasti; assay: Post-emergence herbicidal effect; type: in vivo; conditions: visual score after about 3 weeks
Procedure: as §2

[21] = system: Cyperus esculentus; assay: Post-emergence herbicidal effect; type: in vivo; conditions: dosage 320 g a.i./ha, visual score after about 3 weeks
Procedure: as §2

SMILES | chromatographic logP [1] | Herbicidal activity against STEME ([4]; dosage 80 g a.i./ha) [%] | Herbicidal activity against STEME ([4]; dosage 320 g a.i./ha) [%] | Herbicidal activity against AMARE ([5]; dosage 80 g a.i./ha) [%] | Herbicidal activity against AMARE ([5]; dosage 320 g a.i./ha) [%] | Herbicidal activity against VERPE ([6]; dosage 80 g a.i./ha) [%] | Herbicidal activity against VERPE ([6]; dosage 320 g a.i./ha) [%] | Herbicidal activity against MATIN ([7]; dosage 80 g a.i./ha) [%] | Herbicidal activity against MATIN ([7]; dosage 320 g a.i./ha) [%] | Herbicidal activity against POLCO ([8]; dosage 80 g a.i./ha) [%] | Herbicidal activity against POLCO ([8]; dosage 320 g a.i./ha) [%] | Herbicidal activity against VIOTR ([9]; dosage 80 g a.i./ha) [%] | Herbicidal activity against VIOTR ([9]; dosage 320 g a.i./ha) [%] | Herbicidal activity against SETVI ([10]; dosage 320 g a.i./ha) [%] | Herbicidal activity against ECHCG ([12]; dosage 320 g a.i./ha) [%] | Herbicidal activity against PHBPU ([13]; dosage 320 g a.i./ha) [%] | Herbicidal activity against VIOTR ([15]; dosage 80 g a.i./ha) [%] | Herbicidal activity against VIOTR ([15]; dosage 320 g a.i./ha) [%] | Herbicidal activity against SETVI ([16]; dosage 320 g a.i./ha) [%] | other results
CC/C(=N\O)c1cnc(N[C@H]2c3cc(C)ccc3C[C@@H]2C)nc1CC [Compound 1.40a, N-[(1R,2S)-2,6-Dimethyl-2,3-dihydro-1H-inden-1-yl]-4-ethyl-5-[(1E)-N-hydroxypropanimidoyl]pyrimidine-2-amine] | 3.71 | 100 | 100 | 100 | 100 | 100 | 100 | 90 | 100 | 100 | 100 | 100 | 100 | 100 | 100 | 100 | 90 | 90 | 100 | Herbicidal activity against ALOMY ([2]; dosage 80 g a.i./ha): 90%; Herbicidal activity against ALOMY ([2]; dosage 320 g a.i./ha): 100%; Herbicidal activity against AVEFA [3]: 100%; Herbicidal activity against SETVI ([10]; dosage 80 g a.i./ha): 100%; Herbicidal activity against ABUTH [11]: 100%; Herbicidal activity against ECHCG ([12]; dosage 80 g a.i./ha): 90%; Herbicidal activity against PHBPU ([13]; dosage 80 g a.i./ha): 80%; Herbicidal activity against AMARE ([14]; dosage 80 g a.i./ha): 90%; Herbicidal activity against AMARE ([14]; dosage 320 g a.i./ha): 90%; Herbicidal activity against SETVI ([16]; dosage 80 g a.i./ha): 100%
CCO/N=C(/C)c1cnc(N[C@H]2c3cc(C)ccc3C[C@@H]2C)nc1 [Compound 1.103b, N-[(1R,2S)-2,6-dimethyl-2,3-dihydro-1H-inden-1-yl]-5-[(1Z)-N-ethoxyethanimidoyl]pyrimidine-2-amine] | 4.92 | 100 | 100 | 80 | 100 | 100 | 100 | 100 | 100 | 100 | 100 | 100 | 100 | 90 | 100 | 90 | 90 | 100 | 80 | Herbicidal activity against STEME ([17]; dosage 80 g a.i./ha): 80%; Herbicidal activity against STEME ([17]; dosage 320 g a.i./ha): 90%; Herbicidal activity against MATIN ([18]; dosage 80 g a.i./ha): 80%; Herbicidal activity against MATIN ([18]; dosage 320 g a.i./ha): 100%; Herbicidal activity against POLCO ([19]; dosage 80 g a.i./ha): 90%; Herbicidal activity against POLCO ([19]; dosage 320 g a.i./ha): 100%; Herbicidal activity against ABUTH ([20]; dosage 80 g a.i./ha): 90%; Herbicidal activity against ABUTH ([20]; dosage 320 g a.i./ha): 100%; Herbicidal activity against CYPES [21]: 80%
